The results in this text go back to US12053490B2, “Methods and compositions for treating CD33+ cancers and improving in vivo persistence of chimeric antigen receptor T cells” (ST. JUDE CHILDREN'S RESEARCH HOSPITAL, INC., priority 2017, dated 2024).

The subject of this test is CD33 CAR T cells. As to the kind of experiment: Inhibitor treatment during ex vivo culture. The test is classed as cell-based, human. As to conditions: for total CD8^+ CAR T cells / T cell expansion: 4 days of inhibitor treatment; for proliferating CD8^+ cells that remained CCR7^+: CellTrace Violet, control T cells about 41%. How it is done: Inhibitor treatment during ex vivo culture: CD33 CAR or control transduced T cells were labeled with CellTrace Violet (ThermoFisher) 5 days after their initial activation. […] Cells were analyzed 4 days later by flow cytometry.
Day 1: Separated PBMCs from apheresis ring of donor. Enriched human T cells by Pan T cell negative selection kit. Activate human T cells by anti-human CD3 and anti-human CD28 (1 ug/ml) coated plates overnight.
Day2: Transduced human T cells with anti-CD33 CAR gamma-retrovirus or MSCV control by retronectin coated non-tissue culture plate.
Day3: Resuspend the cells and plate them in the IL-2 RPMI medium in the tissue culture plate.
100U/ml IL-2 was added to cultures every 2 days. Cells were analyzed 4 days later by flow Cytometry.

[1] abbreviates: 4 days, LY294002 10 μM, IC87114 10 μM, API-2 1 μM, rapamycin 50 nM, PP242 1 μM, DCA 10 mM, vs untreated CD33 CAR T cells.

Molecules are shown by their SMILES.

As for `O=C(O)C(Cl)Cl` [DCA, dichloroacetic acid], the “total CD8^+ CAR T cells / T cell expansion” value is “significantly inhibited T cell expansion”. Moreover, under setting [1], the “percent of CD8^+ TN and TCM cells” value is given as “increased”.

For the molecule `Cc1ccccc1-n1c(Cn2cnc3c(N)ncnc32)nc2cccc(C)c2c1=O` [IC87114], under “4 days”, the “percentage of CCR7^+ cells among undivided CD8^+ cells” value is on record as “did not alter” and the “proliferating CD8^+ cells that remained CCR7^+” value is on record as roughly 33%. Moreover, under “4 days, 10 μM”, the “CD8^+ TEM or TEFF cell numbers” value was “did not significantly alter”. Further, the “number of CD8^+ TN and TCM cells” value (4 days, same concentrations, vs untreated CD33 CAR T cells) is given as “increased significantly”. The “percent of CD8^+ TN and TCM cells” value under setting [1] is reported as “increased significantly”. The “CD8^+ TEM or TEFF cell percent” value (Example 4: 4 days, different concentrations) is reported as “significant decrease”. Besides, the “percent of CD8^+ TN and TCM cells” value (Example 4: 4 days, different concentrations, vs untreated CD33 CAR T cells) was “increased significantly”.

Consider `O=c1cc(N2CCOCC2)oc2c(-c3ccccc3)cccc12` [LY294002], for which the “proliferating CD8^+ cells that remained CCR7^+” value (4 days) is “about 43%”.

On to `CC(C)n1nc(-c2cc3cc(O)ccc3[nH]2)c2c(N)ncnc21` [PP242], for which the “total CD8^+ CAR T cells / T cell expansion” value is on record as “substantial decrease”. For the same molecule, under setting [1], the “percent of CD8^+ TN and TCM cells” value is “no detectable effect”. The “number of CD8^+ TEFF cells” value (4 days, rapamycin 50 nM, PP242 1 μM) was “decreased”.
